Experimental data published in a compilation of properties of binary mixtures (doi:10.1016/j.fluid.2020.112621).

Assay: xn = mol fraction of the nth substance listed
Settings: 101 kPa, x2 = 0

| Structure (SMILES) | viscosity (278.15 K) | viscosity (288.15 K) | viscosity (293.15 K) | viscosity (303.15 K) | viscosity (308.15 K) | viscosity (313.15 K) | viscosity (318.15 K) | viscosity (323.15 K) | viscosity (328.15 K) | viscosity (333.15 K) | viscosity (338.15 K) | viscosity (343.15 K) | viscosity (348.15 K) | viscosity (363.15 K) | viscosity (368.15 K) | viscosity (373.15 K) | viscosity (283.15 K) | viscosity (298.15 K) | viscosity (353.15 K) | viscosity (358.15 K) |
| --- | --- | --- | --- | --- | --- | --- | --- | --- | --- | --- | --- | --- | --- | --- | --- | --- | --- | --- | --- | --- |
| CCCC[n+]1ccn(C)c1.COP(=O)([O-])OC + CC(=O)O.CC(=O)[O-].CC[NH+](CC)CCO | 3503 mPa·s | 1361.1 mPa·s | 895 mPa·s | 426 mPa·s | 305.8 mPa·s | 224.9 mPa·s | 168.9 mPa·s | 129.4 mPa·s | 100.9 mPa·s | 79.9 mPa·s | 64.25 mPa·s | 52.35 mPa·s | 43.18 mPa·s | 25.86 mPa·s | 22.22 mPa·s | 19.25 mPa·s | – | – | – | – |
| CCCC[n+]1ccn(C)c1.O=S(=O)([N-]S(=O)(=O)C(F)(F)F)C(F)(F)F + CC(=O)[O-].CCCC[NH2+]CCO | – | – | – | 41.8 mPa·s | 34.3 mPa·s | 28.55 mPa·s | – | 20.5 mPa·s | 17.64 mPa·s | 15.33 mPa·s | 13.43 mPa·s | 11.85 mPa·s | 10.53 mPa·s | 7.65 mPa·s | 6.95 mPa·s | 6.34 mPa·s | 109 mPa·s | 51.73 mPa·s | 9.41 mPa·s | 8.46 mPa·s |
| CCCC[n+]1ccn(C)c1.COP(=O)([O-])OC + CCC(=O)O.CCC(=O)[O-].CC[NH+](CC)CCO | 3503 mPa·s | 1361.1 mPa·s | 895 mPa·s | 426 mPa·s | 305.8 mPa·s | 224.9 mPa·s | 168.9 mPa·s | 129.4 mPa·s | – | 79.9 mPa·s | 64.25 mPa·s | – | 43.18 mPa·s | 25.86 mPa·s | 22.22 mPa·s | – | – | 609 mPa·s | 36.02 mPa·s | 30.38 mPa·s |
| CCCC[n+]1ccn(C)c1.COP(=O)([O-])OC + CCCC(=O)[O-].CC[NH+](CC)CCO | 3503 mPa·s | 1361.1 mPa·s | 895 mPa·s | 426 mPa·s | 305.8 mPa·s | 224.9 mPa·s | – | 129.4 mPa·s | – | 79.9 mPa·s | 64.25 mPa·s | 52.35 mPa·s | – | 25.86 mPa·s | 22.22 mPa·s | – | 2142 mPa·s | – | 36.02 mPa·s | 30.38 mPa·s |
| CCCC[n+]1ccn(C)c1.COP(=O)([O-])OC + CCCCC(=O)[O-].CC[NH+](CC)CCO | 3503 mPa·s | 1361.1 mPa·s | 895 mPa·s | – | 305.8 mPa·s | 224.9 mPa·s | 168.9 mPa·s | – | – | 79.9 mPa·s | 64.25 mPa·s | 52.35 mPa·s | – | 25.86 mPa·s | – | – | 2142 mPa·s | 609 mPa·s | 36.02 mPa·s | – |
| CCCC[n+]1ccn(C)c1.COP(=O)([O-])OC + CCCCCC(=O)O.CCCCCC(=O)[O-].CC[NH+](CC)CCO | 3503 mPa·s | 1361.1 mPa·s | 895 mPa·s | – | 305.8 mPa·s | 224.9 mPa·s | – | 129.4 mPa·s | 100.9 mPa·s | – | 64.25 mPa·s | 52.35 mPa·s | 43.18 mPa·s | – | 22.22 mPa·s | 19.25 mPa·s | 2142 mPa·s | – | 36.02 mPa·s | – |
